Entries after “also recorded” stand apart in the source; their conditions may differ.
Legend:
[1] = test system: TWIST1-positive cells; experiment: Sensitivity of TWIST1-positive cells to Taxol with or without SB203580 pretreatment; format: cell-based
Source text: (§1) SNAIL1 represses TWIST1 during EMT initiation. TWIST1 maintains EMT by creating a low ERK:p38 signaling ratio (high p38 activity). Thus high SNAIL1 levels in primary tumors would induce EMT while high TWIST1 levels would maintain EMT in metastatic cells and possibly contribute to lpDTCs in metastatic sites (FIG. 1).

[2] = test system: BM DTCs; experiment: BM DTC count and lpDTC fraction in ErbB2-induced mouse breast cancer model after single-agent treatment; format: in vivo; conditions: for BM DTC count: FIG. 8A, p<0.05; for fraction of BM lpDTCs (TWIST1+; p-p38+; BrdU- DTCs over total BM DTCs): FIG. 8B
Source text: FIGS. 8A-8B show the dormant TWIST1^+; p-p38; BrdU-DTCs resistance to cytotoxic drugs in ErbB2-induced mouse breast cancer model.
Of these TWIST1-positive BM DTCs, nearly 80% (23/29) expressed activated p38 (p-p38) and 70% (20/29) were also growth arrested as measured by a lack of BrdU incorporation (FIG. 7C-D). In contrast, of the TWIST1-negative DTCs, 94% (67/71) lacked activated p38 and 77% (55/71) were also actively proliferating. Therefore TWIST1-positive; p-p38-positive; BrDU-negative cells represent the fraction of true lpDTCs in these models. To confirm that these BM lpDTCs were resistant to cytotoxic agents and that p38 plays a critical role in their growth arrest, these mice were treated with either SB203085 (10 μmol/kg IP BID×7 days) or the cytotoxic drug paclitaxel (Taxol, 10 mg/kg IP once) and measured the number of all BM DTCs and the fraction of lpDTCs (ratio of TWIST1+; p-p38+; BrdU-DTCs over total BM DTCs). […] ErbB2- or PyMT-induced breast tumor mice were untreated or treated with either Taxol alone or a combination of SB203085 plus Taxol with SB203085 starting 72 hrs prior to and ending 72 hrs after each dose of Taxol (FIG. 9). Three 21-day cycles of chemotherapy were given. Total BM DTCs were determined prior to and 1 week after treatment ended.

[3] = test system: TWIST1-overexpressing cells; experiment: Reversal of TWIST1-dependent growth arrest by p38 inhibition; format: cell-based; conditions: FIG. 4A
Source text: TWIST1 was overexpressed so as to achieve maximal TWIST1 effect, thereby avoiding the confounding problem of added TGFβ1. TWIST1 overexpression alone generated vigorous TGFβ1-independent EMT and led to 2-3 fold lower ERK:p38 signaling ratio (i.e. high p38 activity) compared to the empty vector (FIG. 3D).
as §1

[4] = test system: BM DTCs; experiment: p38 inhibitor plus Taxol in PyMT-induced breast tumor mice: total BM DTCs and overall survival; format: in vivo, mouse; conditions: MMTV-PyMT mice; SB203085 72 hrs prior to until 72 hrs after each Taxol dose, 3 cycles; vs Taxol alone and untreated
Experimental: FIGS. 9A-9B show the p38 inhibition increase the DTCs' sensitivity to cytotoxic chemotherapy. DTCs-bearing PyMT-induced breast tumor mice were either untreated or treated with Taxol alone (10 mg/kg) or with SB203085 (10 μg/kg) followed by Taxol. Taxol was given IP every 3 weeks for 3 cycles. SB203085 was given IP BID starting 72 hours prior to Taxol and continuing until 72 hours after Taxol infusion. Ten mice were included in each reference group. FIGS. 9A and B show the overall survival (A) and total BM DTCs (B) before and after chemo were determined.
Of these TWIST1-positive BM DTCs, nearly 80% (23/29) expressed activated p38 (p-p38) and 70% (20/29) were also growth arrested as measured by a lack of BrdU incorporation (FIG. 7C-D). In contrast, of the TWIST1-negative DTCs, 94% (67/71) lacked activated p38 and 77% (55/71) were also actively proliferating. […] To confirm that these BM lpDTCs were resistant to cytotoxic agents and that p38 plays a critical role in their growth arrest, these mice were treated with either SB203085 (10 μmol/kg IP BID×7 days) or the cytotoxic drug paclitaxel (Taxol, 10 mg/kg IP once) and measured the number of all BM DTCs and the fraction of lpDTCs (ratio of TWIST1+; p-p38+; BrdU-DTCs over total BM DTCs). […] Total BM DTCs were determined prior to and 1 week after treatment ended. […]

[5] = cited from earlier work

SMILES | IC50 ([1]; non-pretreated, FIG. 4B) | IC50 ([1]; pretreatment with SB203580, FIG. 4B) | decrease of total DTC number ([2]; 10 mg/kg IP once) | BM DTC count [2] | fraction of BM lpDTCs (TWIST1+; p-p38+; BrdU- DTCs over total BM DTCs) [2] | TWIST1-dependent growth arrest [3] | increase of number of total BM DTCs compared to non-treated animals ([2]; 10 μmol/kg IP BID x 7 days) | fraction of BM lpDTCs (TWIST1+; p-p38+; BrdU- DTCs over total BM DTCs) ([2]; listed as SB203085) | overall survival [4] | total BM DTCs [4] | tolerability ([5]; 4 dose levels 0.5, 3, 6 and 10 mg PO qday) | most common side effect: skin rash ([5]; phase 2 trial in emphysema) | severe adverse events ([5]; phase 2 trial in emphysema)
CC(=O)O[C@H]1C(=O)[C@@]2(C)[C@H]([C@H](OC(=O)c3ccccc3)[C@]3(O)C[C@H](OC(=O)[C@H](O)[C@@H](NC(=O)c4ccccc4)c4ccccc4)C(C)=C1C3(C)C)[C@]1(OC(C)=O)CO[C@@H]1C[C@@H]2O [Taxol, paclitaxel] | > 40 nM | 6.1 nM | ~2.5 fold | decreases | enriches; also recorded: significantly increased | – | – | – | – | – | – | – | –
C[S+]([O-])c1ccc(-c2nc(-c3ccc(F)cc3)c(-c3ccncc3)[nH]2)cc1 (centres unmarked) [SB203580, 4-(4-Fluorophenyl)-2-(4-methylsulfinylphenyl)-5-(4-pyridyl)-1H-imidazole] | – | – | – | increases | – | reversed TWIST1-dependent growth arrest in a dose dependent manner | > 4 fold | decreased | increased overall survival | significantly reduced total BM DTCs | – | – | –
CNC(=O)c1ccc(C)c(-n2c(C)cc(OCc3ccc(F)cc3F)c(Br)c2=O)c1 [PH797804, 3-(4-(2,4-difluorobenzyloxy)-3-bromo-6-methyl-2-oxopyridin-1(2H)-yl)-N,4-dimethylbenzamide] | – | – | – | – | – | – | – | – | – | – | well tolerated | ~1% | No significant severe adverse events
